Test results from US9528090B2, “Differentiation of human embryonic stem cells” (Janssen Biotech, Inc., priority 2010, dated 2016).

Tested on: human embryonic stem cells line H1
Assay: Definitive endoderm differentiation of H1 cells, cluster seeding (activin A/WNT-3a, RPMI): FACS for CXCR4 and CD9
Assay type: cell-based
Conditions: for % CXCR4 + CD9− / % CXCR4 − CD9+ / % CXCR4 − CD9−: cluster seeding, day 4
Procedure: Cells of the human embryonic stem cells line H1 (p40-p52) were cultured on […]® (1:30 dilution) (BD Biosciences; Cat #356231)-coated dishes in MEF-CM (mouse embryonic fibroblast conditioned media) supplemented with 16 ng/ml of FGF2 (Catalog#100-18B, PeproTech, NJ), and differentiated into cells expressing markers characteristic of the definitive endoderm lineage as follows: • a. RPMI medium supplemented with 2% fatty acid-free BSA (Catalog#68700, Proliant, IA), and 100 ng/ml activin A (R&D Systems, MN) plus 20 ng/ml WNT-3a (Catalog#1324-WN-002, R&D Systems, MN) for one day, then • b. RPMI medium supplemented with 2% BSA and 100 ng/ml activin A for an additional three days.
[…] ITS-X is a serum replacement supplemented comprised of 1 mg/ml of Insulin, 0.55 mg/ml of Transferrin, 0.00067 mg/ml of Sodium Selenite, […] As a control, 0.2% FBS (Catalogue#SH30070.03, Hyclone, UT) was used for day 1 of differentiation, 0.5% FBS at day 2 and 2% FBS was used for days 3-4. The FBS treated cultures were not supplemented with ITS-X.
At day 4, samples were collected for FACS and gene expression analysis using real-time PCR.
The cell surface receptor CXCR4 has been previously shown to be a marker of definitive endoderm. CD9 is a marker for undifferentiated ES cells. Consequently, an increase in the expression of CXCR4, and a decrease in the expression of CD9 in a population of cells is indicative for the formation of definitive endoderm.

[1] = BSA + 100 ng/ml insulin (ITS-X)

With insulin the “% CXCR4 + CD9−” value (BSA + 1 ng/ml insulin (ITS-X)) was 70%, the “% CXCR4 − CD9+” value (BSA + 1 ng/ml insulin (ITS-X)) was 13% and the “% CXCR4 − CD9−” value (BSA + 1 ng/ml insulin (ITS-X)) was 10%. The “% CXCR4 + CD9−” value (BSA + 5 ng/ml insulin (ITS-X)) was 67%, the “% CXCR4 − CD9+” value (BSA + 5 ng/ml insulin (ITS-X)) was 15% and the “% CXCR4 − CD9−” value (BSA + 5 ng/ml insulin (ITS-X)) was 12%. For the same substance, the “% CXCR4 + CD9−” value (BSA + 10 ng/ml insulin (ITS-X)) was 69%, the “% CXCR4 − CD9+” value (BSA + 10 ng/ml insulin (ITS-X)) was 13% and the “% CXCR4 − CD9−” value (BSA + 10 ng/ml insulin (ITS-X)) was 13%. For the same substance, the “% CXCR4 + CD9−” value [1] was 73%, the “% CXCR4 − CD9+” value [1] was 12% and the “% CXCR4 − CD9−” value [1] was 9%. The “expression of CXCR4, or CD9” value (BSA medium, any concentration of insulin tested, FACS) was “no significant change”.
